Data taken from US20260115250A1, “METHODS OF TREATING AGE-RELATED MACULAR DEGENERATION” (Character Biosciences, Inc., priority 2022, published 2026).
Peptide text beside a SMILES is read from it.

How the values were obtained:
HepG2 cells = assay: HepG2 cholesterol import (BODIPY-Cholesterol); format: cell-based; conditions: HepG2, peptide:lipid complexes from 30 μM diluted 1:3
Experimental: HepG2 cells were seeded on a 96-well plate at 10,000 cells per well and grown to confluence. A solution of 500 μM DMPC and 50 μM BODIPY-Cholesterol was prepared in serum free EMEM. Peptides were diluted to 20 μM in serum free EMEM (a 2× solution). Peptides were added to lipid solution in equal parts (60 μL each) to create final 1× concentration and incubated for 1 hour at 37° C. HepG2 cells were serum starved in serum-free EMEM for 1 hour at 37° C. Peptide: Lipid complexes (100 μL total volume per well) were transferred to HepG2 cells for 2 hours at 37° C. Cells were washed, fixed, and intracellular fluorescence was read on Promega GloMax at 475 nm excitation, 500-550 emission. Fluorescence values were background corrected from no treatment conditions. Data are presented as mean+SD for two runs.
HepG2 cells were seeded on 96-well plates at 10,000 cells per well and grown to confluence. Peptide: Lipid complexes were created by preparing a solution of serum-free EMEM containing 30 μM peptide, 750 μM DMPC, and 75 μM BODIPY-Cholesterol. Peptide: Lipid complexes were serially diluted 1:3 for 5 concentrations, and incubated for 1 hour at 37° C. […] Cells were washed, fixed, and intracellular fluorescence was read on Promega GloMax at 475 nm excitation, 500-550 emission. Fluorescence values were background corrected from no treatment conditions. […]

ARPE-19 cells [1] = assay: ARPE-19 GAG-dependent cholesterol import (with or without heparin); format: cell-based, human; conditions: ARPE-19, 10 μM peptide
Experimental: ARPE-19 cells were seeded on 96-well plates at 25,000 cells per well and grown to confluence. A 2× solution of 500 μM DMPC and 50 μM BODIPY-Cholesterol with or without 100 µg/mL heparin was prepared in serum free DMEM: F12. Peptides were diluted to 20 μM in serum free DMEM: F12 (a 2× solution). Peptides were added to lipid solution in equal parts (60 μL each) and incubated for 1 hour at 37° C. ARPE-19 cells were serum starved in serum free DMEM: F12 for 1 hour at 37° C. Peptide: Lipid complexes (100 μL total volume per well) were transferred to ARPE-19 cells for 2 hours at 37° C. Cells were washed, fixed, and intracellular fluorescence was read on Promega GloMax at 475 nm excitation, 500-550 emission. Fluorescence values were background corrected from no treatment conditions. Data are presented ±SD for 2 runs.

ARPE-19 cells [2] = assay: ARPE-19 cell lysis (Sytox Green); format: cell-based, human; conditions: 3.16-100 μM peptide, 2 h
Experimental: These figures illustrate ARPE-19 cell lysis. ARPE-19 cells were grown in 96-well plates to 75-85% confluence. Peptides at 10 mM were diluted in serum-free DMEM:F12 media into a 20 μM working solution (a 2× solution). Sytox Green was prepared in serum-free DMEM:F12 at a 1 μM working solution (a 2× solution). Equivalent volumes of the peptide and Sytox Green solutions were added to empty 96-well plates and mixed gently. Final peptide concentration was 10 μM. ARPE-19 cells (˜80% confluent in 96-well plates) were washed with DPBS and then incubated in 100 μL of peptide/Sytox Green mixture for 2 h at 37° C. Cells were fixed in 4% paraformaldehyde solution in DPBS and then incubated in 10 μM Hoechst solution for 10 min, washed, and imaged on a Yokogawa CQ1 high-content imager. CellPathfinder software was used to count live/dead cells in 4 fields of view at 20× magnification. Percent (%) lysis was calculated by dividing the number of Sytox Green+ nuclei by the total number of Hoechst+ nuclei.
ARPE-19 cells were grown in 96-well plates to 75-85% confluence. Peptides at 10 mM were diluted in serum-free DMEM: F12 media to solutions between […]. Sytox Green was prepared in serum-free DMEM: F12 media at a 1 μM working solution. Equivalent volumes of the peptide and Sytox Green solutions were added to empty 96-well plates and mixed gently. Final peptide concentration was 3.16-100 μM. ARPE-19 cells (˜80% confluent in 96-well plates) were washed with DPBS and then incubated in 100 μL of peptide/Sytox Green mixture for 2 h at 37° C. Cells were fixed in 4% paraformaldehyde solution in DPBS and then incubated in 10 μM Hoechst solution for 10 min, washed, and imaged on a Yokogawa CQ1 high-content imager. CellPathfinder software was used to count live/dead cells in 4 fields of view at 20× magnification. Percent (%) lysis was calculated by dividing the number of Sytox Green+ nuclei by the total number of Hoechst+ nuclei. Non-linear regression was used to calculate EC50 values.

[3] = DMPC solubility assay, 0.5 mM DMPC (turbidity reduction); format: biochemical
Procedure, shortened: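 Peptides (100 μM final, or 3.16-100 μM for titrations) incubated with 0.5 mM DMPC in water for 15 minutes at room temperature. Turbidity read as absorbance at 405 nm; EC50 from non-linear regression, mean+SD over two runs.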

CC[C@H](C)[C@H](NC(=O)CNC(=O)[C@H](CO)NC(=O)[C@@H](NC(=O)[C@H](Cc1c[nH]c2ccccc12)NC(=O)[C@H](Cc1c[nH]cn1)NC(=O)[C@H](CCC(=O)O)NC(=O)[C@H](Cc1ccccc1)NC(=O)[C@H](CCCNC(=N)N)NC(=O)[C@H](CC(C)C)NC(=O)[C@H](CC(C)C)NC(=O)[C@H](CCCNC(=N)N)NC(=O)[C@H](CCCCN)NC(=O)[C@H](CCCNC(=N)N)NC(=O)[C@H](CC(C)C)NC(=O)[C@H](CCCCN)NC(=O)[C@H](CCCNC(=N)N)NC(=O)[C@H](CC(C)C)NC(=O)[C@@H](N)Cc1c[nH]cn1)[C@@H](C)CC)C(=O)N[C@@H](Cc1ccc(O)cc1)C(=O)N[C@@H](CO)C(=O)N[C@@H](CCC(=O)O)C(=O)N[C@@H](CS)C(=O)N[C@@H](CCCCN)C(=O)N[C@@H](Cc1c[nH]cn1)C(=O)N[C@@H](CC(C)C)C(=O)N[C@H](C(=O)N[C@@H](CCC(N)=O)C(=O)N[C@@H](CCC(=O)O)C(=O)O)[C@@H](C)CC [T-025] (H-HLRKLRKRLLRFEHWISGIYSECKHLIQE-OH; N-terminus and C-terminus assumed)
cholesterol import titration (HepG2 cells): concentration-dependent cholesterol import activity | GAG dependence of cholesterol import (ARPE-19 cells [1]): rely on GAG binding for cholesterol import activity | EC50 (ARPE-19 cells [2]): 144 µM | EC50 ([3]; 3.16-100 μM peptides, 15 minutes): 25.3 µM | DMPC solubilizing activity ([3]; FIGS. 2A-2D and 3A-3C): significant activity
